From patent US20230357253A1, “AGONISTS OF STIMULATOR OF INTERFERON GENES STING” (THE SCRIPPS RESEARCH INSTITUTE, priority 2020, published 2023) come the findings set out here.

In this test the test system is THP-1 Lucia ISG cells. The test can be described thus: ISRE-luciferase assay (ISG-LUC activation). Format: cell-based. The conditions noted are these: Homo sapiens, THP1-Lucia ISG, 24 hours, luciferase reporter. The procedure:
ISRE-luciferase assay. THP-1 Lucia ISG cells were resuspended in low-serum growth media (2% FBS) at a density of 5×10^5 cells/ml and treated with test article or vehicle (DMSO). 50 μL of cells were seeded into each well of a 384-well white greiner plates and incubated for 24 hours. To evaluate expression of the luciferase reporter, 30 μl of Quanti-luc (Invivogen) detection reagent was added to each well and luminescence was read using an Envision plate reader (Perkin Elmer) set with an integration time of 0.1 seconds. For each cell type, luminescence signals for test article samples were normalized to vehicle-treated samples and reported as relative light units (RLU).
For the molecule `O=C(Nc1c(C(=O)O)cc(F)c(OCCCCOc2c(F)cc(C(=O)O)c(NC(=O)c3ccc(-n4ccnc4)nn3)c2F)c1F)c1ccc(-n2ccnc2)nn1` [Compound 38], the EC50 (usually the concentration needed to bring the measured effect to its halfway point) is 50 to 500 nM. Next, `O=C(Nc1c(C(=O)O)cc(F)c(OCCCCOc2c(F)cc(C(=O)O)c(NC(=O)c3ccc(-n4ccnc4)nn3)c2F)c1F)c1ccc(O)nn1` [Compound 39]: over 5000 nM; `O=c1oc(-c2ccc(-n3ccnc3)nn2)nc2cc(OCCCCOc3cc4nc(-c5ccc(-n6ccnc6)nn5)oc(=O)c4cc3F)c(F)cc12` [Compound 40]: under 50 nM; `COc1cc2c(=O)oc(-c3ccc(-n4ccnc4)nn3)nc2cc1OCCCCOc1cc2nc(-c3ccc(-n4ccnc4)nn3)oc(=O)c2cc1OC` [Compound 41]: under 50 nM. Molecule `O=C(Nc1cc(OCCCCOc2ccc(C(=O)O)c(NC(=O)c3ccc(-n4ccnc4)nn3)c2)ccc1C(=O)O)c1cccnn1` [Compound 44] returned an EC50 of over 5000 nM.

The molecule `O=C(Nc1cc(OCCCCOc2cnc(C(=O)O)c(NC(=O)c3ccc(-n4ccnc4)nn3)c2)cnc1C(=O)O)c1ccc(-n2ccnc2)nn1` [Compound 45] came in with an EC50 of over 5000 nM. `COC(=O)c1cc(F)c(CCCc2cc(NC(=O)c3ccc(-n4ccnc4)nn3)c(C(=O)OC)cc2F)cc1NC(=O)c1ccc(-n2ccnc2)nn1` [Compound 51] showed an EC50 of under 50 nM.

`COC(=O)c1ccc(CCCc2ccc(NC(=O)c3ccc(-n4ccnc4)nn3)c(C(=O)OC)c2)cc1NC(=O)c1ccc(-n2ccnc2)nn1` [Compound 53]: the EC50 is over 5000 nM. On to `COC(=O)c1cc(F)c(CCCc2cc(NC(=O)c3ccc(-n4ccnc4)nn3)c(C(=O)OC)cc2OC)cc1NC(=O)c1ccc(-n2ccnc2)nn1` [Compound 54], for which the EC50 was under 50 nM. Next, `COc1cc(C(=O)O)c(NC(=O)c2ccc(-n3ccnc3)nn2)cc1CCCc1ccc(C(=O)O)c(NC(=O)c2ccc(-n3ccnc3)nn2)c1` [Compound 56]: 50 to 500 nM. For `COc1cc(C(=O)O)c(NC(=O)c2ccc(-n3ccnc3)nn2)cc1CCCc1cc(NC(=O)c2ccc(-n3ccnc3)nn2)c(C(=O)O)cc1F` [Compound 59] the value was 50 to 500 nM. For `O=C(Nc1cc(CCCc2ccc(C(=O)O)c(NC(=O)c3ccc4nnnn4n3)c2)ccc1C(=O)O)c1ccc(-n2ccnc2)nn1` [Compound 63] the value was over 5000 nM; for `O=C(Nc1cc(CCCc2cc(NC(=O)c3ccc(-n4ccnc4)nn3)c(C(=O)O)cc2Cl)ccc1C(=O)O)c1ccc(-n2ccnc2)nn1` [Compound 66], 50 to 500 nM; for `O=C(Nc1cc(CCCc2cc(NC(=O)c3ccc4nnnn4n3)c(C(=O)O)cc2F)c(F)cc1C(=O)O)c1ccc(-n2ccnc2)nn1` [Compound 67], 50 to 500 nM. Consider `O=C(Nc1cc(CCCc2cc(NC(=O)c3ccc(-n4ccnc4)nn3)c(C(=O)O)cc2F)ccc1C(=O)O)c1ccc(-n2ccnc2)nn1` [Compound 68], for which the EC50 is 50 to 500 nM. For `O=C(Nc1cc(CCCc2cc(C(=O)O)c(NC(=O)c3ccc(-n4ccnc4)nn3)cc2F)c(F)cc1C(=O)O)c1ccc(-n2ccnc2)nn1` [Compound 70] the value was 500 to 5000 nM; for `O=C(Nc1cc(CCCc2cc(C(=O)O)c(NC(=O)c3ccc(-n4ccnc4)nn3)cc2F)ccc1C(=O)O)c1ccc(-n2ccnc2)nn1` [Compound 78], 50 to 500 nM. Next, `O=C(Nc1cc(CCCc2cc(C(=O)O)c(NC(=O)c3ccc4nnnn4n3)cc2F)c(F)cc1C(=O)O)c1ccc(-n2ccnc2)nn1` [Compound 90]: 500 to 5000 nM.

`O=C(Nc1cc(F)c(CCCc2cc(NC(=O)c3ccc4nnnn4n3)c(C(=O)O)cc2F)cc1C(=O)O)c1ccc(-n2ccnc2)nn1` [Compound 94] came in with an EC50 of 50 to 500 nM. Next, `COC(=O)c1cc(Cl)c(CCCc2ccc(C(=O)OC)c(NC(=O)c3ccc4nnnn4n3)c2)cc1NC(=O)c1ccc(-n2ccnc2)nn1` [Compound 106]: under 50 nM. For `COC(=O)c1cc(F)c(CCOc2cc(NC(=O)c3ccc4nnnn4n3)c(C(=O)OC)cc2F)cc1NC(=O)c1ccc(-n2ccnc2)nn1` [Compound 113], the EC50 is under 50 nM.
